Where “and” joins values, the source holds several entries; their conditions need not be identical. Equal entries are not always repeated.
How the values were obtained:
MCF-7 cells = assay: In vitro cell proliferation assay over 15 days, MCF-7; assay type: cell-based, human; details: MCF-7, 15 days of treatment
Procedure: (§1) MCF-7, MCF-7TG, and MCF-7pMAMneo cells were seeded at a density of 25 × 10^3/well into six-well plates using the culture conditions above mentioned. After 24 h, fresh medium was added to the cells and treated with IC50 and 2^∗IC50 of drugs cited in Table 1. No treatment was added to the control groups. To ensure the expression of the gef gene, MCF-7TG cells medium was always treated with 1 μM Dex. Cells in culture were always treated with or without drugs every 3 days when medium was changed up to the end of the assay. Four plates were used to run each treatment and time point (0, 3, 6, 9, 12, and 15 days of treatment). After the end of the treatment, we used sulforhodamine-B to stain the cells as previously described.

MCF-7TG cancer cell line = assay: Sulforhodamine-B cytotoxicity assay, MCF-7TG (gef-expressing); assay type: cell-based; details: Homo sapiens, 144 h; 6 days of treatment, gef gene induced with 1 μM Dex
Excerpt: (§2) The breast cancer cell line MCF-7 was kindly provided by Dr. N. Olea of the Sánchez Mora Tumoural Biology Institute (University Hospital of Granada). The MCF-7TG cell line, a gef-expressing breast cancer cell line controlled by a mouse mammary tumor virus promoter and inducible by dexamethasone (Dex) was derivates from MCF-7 cells following methodology previously described by us ([Boulaiz et al., 2003b]). A selected MCF-7pMAMneo empty vector positive clone was also used. Non-tumoral breast cell line MCF-10A (ATCC: CRL-10317) was provided by the Cell Bank of the University of Granada (Granada, Spain). MCF-7 cells were cultured in a humidified atmosphere at 37°C with 5% CO2 and Dulbecco’s modified Eagle Medium (DMEM) (Gibco, Grand Island, NY, United States) with 10% heat-inactivated fetal bovine serum (FBS) (Gibco), 2.7% sodium bicarbonate, 2% L-glutamine, 1% Hepes buffer, 500 mg/L ampicillin and 40 mg/L gentamicin. MCF-7TG cells were grown in the same medium described above supplemented by 200 μg/ml geneticin G418 and 1μM Dex to induce gef gene expression. MCF-10A grown in DMEM/F12 medium with 5% horse serum (HS), 0.02 μg/ml epithelial growth factor (EGF), 0.5 μg/ml hydrocortisone, 100 ng/ml cholera toxin and 0.01 μg/ml insulin.
(§3) To assess the effect of the different drugs on cell viability we used the sulforhodamine-B colorimetric assay. Cells were resuspended and seeded at a density of 5 × 10^3 cells/well onto 12-well plates kept growing for 24 h. After that, the compounds were added at different concentrations to the cells (0.5, 0.7, 1, 2, 5, and 10 μM) (Figure 1). After 72 h treatment, the medium was discarded and fresh medium and treatment was added. Cells were maintained for 3 days more with the treatment. Finally, they were processed as previously described ([Boulaiz et al., 2003b]) using a Titertek Multiscan apparatus (Flow Laboratories, Irvine, United Kingdom) at 492 nm. We used the cell number for each cell stock before each cell growth experiment to set the linearity of the sulforhodamine-B assay. To calculate the IC50 values we used semilogarithmic dose–response curves to make a linear interpolation. All of the experiments were performed in triplicate wells for each treatment and were repeated at least twice.

MCF-7 cancer cell line = assay: Sulforhodamine-B cytotoxicity assay, MCF-7; assay type: cell-based; details: Homo sapiens, MCF7, 144 h, 6 days of treatment
Procedure: as §3

MCF-7TG cell line [1] = assay: Annexin V-FITC/PI apoptosis flow cytometry, MCF-7TG; assay type: cell-based, human; details: 72 h, IC50 of compound, control 0.74 ± 0.05%
Excerpt: (§4) Apoptosis was detected using the apoptosis detection kit for annexin V-FITC (Pharmingen, San Diego, CA, United States) by flow cytometry according to [Boulaiz et al. (2003a)]. […] The results were representative of three independent experiments.

MCF-7 cell line [2] = assay: Annexin V-FITC/PI apoptosis flow cytometry, MCF-7; assay type: cell-based, human; details: MCF-7, 72 h, IC50 of compound; control 8.15 ± 0.40%
Excerpt: as §4

[3] = system: epithelial MCF-10A cell line; assay: Sulforhodamine-B cytotoxicity assay, MCF-10A; assay type: cell-based; details: Homo sapiens, non-tumoral breast cell line
Excerpt: as §2, §3

MCF-7TG cells = assay: In vitro cell proliferation assay over 15 days, MCF-7TG; assay type: cell-based, human; details: for growth inhibition: MCF-7TG (gef expressed), 15 days of treatment; for type of synergistic effect with the gef gene: combined with gef gene, proliferation over 15 days
Procedure: as §1

MCF-7 cell line [4] = assay: Flow cytometric analysis of the cell cycle, MCF-7; assay type: cell-based, human; details: MCF-7, 72 h, IC50 of compound; for S phase cells: control 17.41 ± 0.81%; for G2/M phase cells: control 17.56 ± 0.87%
Procedure: (§5) Cells were grown at 70% confluence and treated with either DMSO alone or with different concentrations of the compounds corresponding to their IC50 values. Flow cytometry analysis was carried out after 72 h of treatment as described ([Marchal et al., 2004]). The results were representative of three independent experiments.

MCF-7TG cell line [5] = assay: Flow cytometric analysis of the cell cycle, MCF-7TG; assay type: cell-based, human; details: 72 h, IC50 of compound
Procedure: as §5

| Structure (SMILES) | growth inhibition (MCF-7 cells; 2*IC50 of compound) | growth inhibition (MCF-7 cells; IC50 of compound) [%] | IC50 (MCF-7TG cancer cell line) [µM] | IC50 (MCF-7 cancer cell line) [µM] | necrotic cells (MCF-7TG cell line [1]) [%] | cells in early apoptosis (MCF-7 cell line [2]) [%] | IC50 [3] [µM] | growth inhibition (MCF-7TG cells; IC50 of compound) [%] | type of synergistic effect with the gef gene (MCF-7TG cells) | S phase cells (MCF-7 cell line [4]) [%] | G2/M phase cells (MCF-7 cell line [4]) [%] | G0/G1 phase cells (MCF-7TG cell line [5]) [%] | growth inhibition (MCF-7TG cells; 2*IC50 of compound) |
| --- | --- | --- | --- | --- | --- | --- | --- | --- | --- | --- | --- | --- | --- |
| O=[N+]([O-])c1ccc(S(=O)(=O)N2CC(n3cnc4c(Cl)nc(Cl)nc43)OCc3ccccc32)cc1 (racemic) [Bozepinib, (R,S)-2,6-dichloro-9-[1-(p-nitrobenzenesulfonyl)-1,2,3,5-tetrahydro-4,1-benzoxazepine-3-yl]-9H-purine] | 89.42% | 76 | 0.56 ± 0.01 | 1.23 ± 0.05 | 47.03 ± 1.07 | 40.41 ± 2.02 | 6.33 ± 0.03 | 81.42 | enhanced synergetic effect | 12.29 ± 0.90 | 22.98 ± 1.14 | 85.98 ± 4.29 |  |
| COC(CN(c1ccccc1CO)S(=O)(=O)c1ccc([N+](=O)[O-])cc1)n1cnc2c(Cl)nc(Cl)nc21 (stereo not drawn) [ACG-812c-F1] |  |  | 8.75 ± 0.18 | 9.43 ± 0.07 |  |  | 17.48 ± 0.12 |  |  |  |  |  |  |
| O=[N+]([O-])c1ccccc1S(=O)(=O)N1CC(n2cnc3c(Cl)nc(Cl)nc32)OCc2ccccc21 (stereo not drawn) [FC-26c] |  | 61.6 | 0.65 ± 0.03 | 2.6 ± 0.1 | 54.38 ± 2.3 | 37.63 ± 1.88 | 9.187 ± 0.08 |  | enhanced synergetic effect |  |  | 81.25 ± 4.05 |  |
| Nc1ccccc1S(=O)(=O)N1CC(n2cnc3c(Cl)nc(Cl)nc32)OCc2ccccc21 (stereo not drawn) [FC-29b] | 70.48% and 70% | 61.91 | 1.9 ± 0.02 | 5.02 ± 0.12 | 51.92 ± 2.09 | 57.62 ± 2.88 | 4.04 ± 0.09 | 60 | additive synergetic effect | 9.47 ± 0.30 | 26.12 ± 1.20 | 80.07 ± 4.01 | 70.48% and 70% |
| O=S(=O)(c1ccccc1NO)N1CC(n2cnc3c(Cl)nc(Cl)nc32)OCc2ccccc21 (stereo not drawn) [FC-29d] |  |  | 6.7 ± 0.01 | 8.98 ± 0.3 |  |  | 47.12 ± 0.05 |  |  |  |  |  |  |
| O=[N+]([O-])c1ccccc1S(=O)(=O)N1CC(n2cnc3nc(Cl)nc(Cl)c32)OCc2ccccc21 (stereo not drawn) [FC-30b2] | 96% | 82 | 1.8 ± 0.08 | 7.75 ± 0.06 | 65.09 ± 2.47 | 73.27 ± 3.66 | 9.9 ± 0.08 | 81.14 | enhanced synergetic effect | 0.63 ± 0.01 | 33.22 ± 1.66 | 72.96 ± 3.50 |  |
